{"source": "patent US11324825B2", "about": "“Synthetic retinoids (in cell modulation)” (University of Durham, priority 2016, dated 2022)", "key": {"HaCaT cells [1]": {"tested_on": "HaCaT cells", "assay": "ROS staining (Superoxide Detection Reagent, CellRox)", "format": "cell-based, human", "details": "for superoxide stain fluorescence after UV exposure: UV treatment, rhodamine filter, 60-260 seconds after UV", "method": "One day prior to imaging, HaCaT cells (20,000 approx) were seeded into each well of a 24 well plastic plate. Cells were allowed to incubate overnight in serum containing media. Three hours prior to imaging, the media in each well was replaced with fresh serum containing media which included a 1:500 dilution of Superoxide Detection Reagent, CellRox. […] The cells were incubated with the ROS stain at 37° C. for one hour. An hour and a half before imaging, the media in the negative control well was replaced with N-acetyl-L-cysteine diluted in serum containing media (1 mL, 10 mM). One hour before imaging the media in all but one of the other wells was replaced with compound containing media, 1 mL per well. Thirty minutes prior to imaging, the media in the positive control well was replaced with pyocyanine diluted in serum containing media (1 mL, 500 μM). Pyocyanine induces ROS within 20-30 minutes. The cells were imaged in a heated chamber and supplied with 5% CO2. The cells were imaged in a 37° C. heated chamber using the Zeiss LSM 880 with Airyscan confocal laser scanning microscope. Cells were irradiated with 405 nm laser to activate compounds and ROS dye was excited with 633 nm laser Note: Cells were imaged in DMEM media which contains phenol red.\nIn order to gain more insight into the mode of action leading to cell death, we examined the photo-initiated ROS production using the redox reactive dye, CellRox, which fluoresces in response to oxidation by reactive oxygen species."}, "HaCaT cells [2]": {"tested_on": "HaCaT cells", "assay": "Cell death on Zeiss Live Cell Observer after UV light", "format": "cell-based", "method": "(§1) One day prior to imaging, HaCaT or J2 cells (20,000 approx.) were seeded into each well of a 6 well or 24 well plastic plate. Cells were allowed to incubate overnight in serum containing media. One to four hours before imaging the normal media was replaced with compound containing media, 1 mL per well. The cells were imaged in a 37° C. heated chamber and supplied with 5% CO2. Zeiss Live Cell Observer microscope: OSRAM 1×HBO 103 W/2 100 Watt Mercury Bulb, DAPI Excitation filter=335-385 nm, DAPI Emission filter=420-470 nm. Note: Cells were imaged in DMEM media which contains phenol red."}, "HaCaT cells [3]": {"tested_on": "HaCaT cells", "assay": "Cell death on Zeiss 880 confocal, 405 nm laser light", "format": "cell-based, human", "details": "10 μM; for membrane blebbing on repeated exposures to 405 nm laser: up to 47 exposures", "method": "One day prior to imaging, HaCaT cells (4000 approx.) were seeded into each well of an 8 well glass slide. Cells were allowed to incubate overnight in serum containing media. One hour before imaging the normal media was replaced with compound containing media, 1 mL per well. The cells were imaged in a 37° C. heated chamber using the Zeiss LSM 880 with Airyscan confocal laser scanning microscope. Note: Cells were imaged in DMEM media which contains phenol red.\nImages of 10 μM compound treated cells were taken every twenty minutes and at each time point a treatment of 405 nm light at 50% laser strength was applied."}, "[4]": {"assay": "Absorbance and emission spectra", "format": "physicochemical", "details": "in chloroform", "method": "FIG. 18 illustrates the combined normalised absorbance spectra of DC324, DC473 and DC474 in CHCl3 (10 μM);\nFIG. 19 illustrates the combined normalised emission spectra of DC324, DC473 and DC474 in CHCl3 (100 nM) with excitation at their respective maximal absorption wavelengths;"}, "[5]": {"tested_on": "J2 cells, a mouse fibroblast cell line", "assay": "Cell death on Zeiss Live Cell Observer after UV light, J2 cells", "format": "cell-based", "method": "as §1\nReferring to FIG. 6: Cell death observations were consistent across different cell lines. […] A 10× objective lens at Phase 0 was used."}, "HaCaT cells [6]": {"tested_on": "HaCaT cells", "assay": "Dose response of cell death after 10 s UV (time lapse imaging)", "details": "Homo sapiens, light or radiation study, 10 seconds of UV (DAPI filter, 20× objective), 24 hours after initial irradiation, read-out: EC50 based on average viable fraction of the cellular population", "method": "The speed of death was tested at a number of concentrations in order to determine an estimate for the EC50 (half maximal effective concentration) value. Morphological changes were recorded using time lapse imaging at 5 minute intervals. The time taken between 10 s of UV light treatment and the first sign of damage to the cell membranes was recorded. Each cell in the field of view was treated as an individual data point, before taking an average of the time for each concentration.\nReferring to FIG. 12: The dose-dependent response of HaCaT cells treated with DC324 and DC473 and 10 seconds of UV. UV exposure was administered through the DAPI filter and a 20× objective lens, phase 0."}}}
{"compound": "CC1=C(/C=C/C(C)=C/C=C/C(C)=C/C(=O)O)C(C)(C)CCC1", "note": "[ATRA, All Trans-Retinoic Acid, reference compound]", "values": [{"measurement": "superoxide stain fluorescence after UV exposure", "setting": "HaCaT cells [1]", "result": "produced an increased level of fluorescence post exposure to UV"}, {"measurement": "membrane blebbing and cell death following exposure to UV light (initial screening)", "setting": "HaCaT cells [2]; UV light", "result": "no membrane blebbing was observed"}, {"measurement": "membrane blebbing on repeated exposures to 405 nm laser", "setting": "HaCaT cells [3]; 405 nm laser at 50% strength", "result": "No membrane blebbing was observed"}]}
{"compound": "CC(C)N1CCC(C)(C)c2cc(C#Cc3ccc(/C=C/C(=O)O)cc3)ccc21", "note": "[DC324, (2E)-3-(4-2-[4,4-Dimethyl-1-(propan-2-yl)-1,2,3,4-tetrahydroquinolin-6-yl]ethynylphenyl)prop-2-enoic Acid]", "values": [{"measurement": "CellRox (ROS-stimulated) relative fluorescence after irradiation", "setting": "HaCaT cells [1]; 405 nm light, before vs after irradiation", "result": "steady increase"}, {"measurement": "superoxide stain fluorescence after UV exposure", "setting": "HaCaT cells [1]", "result": "indicates superoxide production"}, {"measurement": "Absorbance wavelength max", "setting": "[4]", "result": 400, "unit": "max nm"}, {"measurement": "Absorbance wavelength range", "setting": "[4]", "result": "275-475 range nm"}, {"measurement": "Emission wavelength max", "setting": "[4]; excitation at 400 nm", "result": 560, "unit": "max nm"}, {"measurement": "Emission wavelength range", "setting": "[4]; excitation at 400 nm", "result": "450-700 range nm"}, {"measurement": "cells from the same well away from the site of UV exposure", "setting": "HaCaT cells [2]; 10 μM, no UV exposure", "result": "healthy cells"}, {"measurement": "time to necrosis after UV treatment", "setting": "HaCaT cells [2]; 10 μM, single 10 s treatment with UV light, 10× objective lens, Phase 0", "result": "within two hours"}, {"measurement": "membrane blebbing and cell death following exposure to UV light (initial screening)", "setting": "HaCaT cells [2]; UV light", "result": "induced membrane blebbing and cell death"}, {"measurement": "speed of cell death induction compared with other compounds", "setting": "HaCaT cells [2]; UV light", "result": "most rapid inducer of cell death"}, {"measurement": "number of exposures until first bleb appeared", "setting": "HaCaT cells [3]; 405 nm laser at 50% strength", "result": 21, "unit": "exposures"}, {"measurement": "type of cell death induced by 405 nm light", "setting": "HaCaT cells [3]; 405 nm laser at 50% strength", "result": "more characteristic of apoptosis than the cell death caused by UV light"}, {"measurement": "membrane blebbing on repeated exposures to 405 nm laser", "setting": "HaCaT cells [3]; 405 nm laser at 50% strength", "result": "Membrane blebbing was induced"}, {"measurement": "cell death under 405 nm laser light versus DMSO control", "setting": "HaCaT cells [3]; 405 nm light at 50% laser strength every twenty minutes", "result": "significantly different to the DMSO control"}, {"measurement": "UV untreated cells in the compound, same well as treated area", "setting": "[5]; no UV", "result": "appear healthy after 26 hours"}, {"measurement": "membrane blebbing after a single UV treatment", "setting": "[5]; single UV treatment, 10× objective lens, Phase 0", "result": "displayed membrane blebbing within two hours"}, {"measurement": "EC50", "setting": "HaCaT cells [6]", "result": 200, "unit": "nM"}]}
{"compound": "C#CCN1CCC(C)(C)c2cc(C#Cc3ccc(/C=C/C(=O)OC)cc3)ccc21", "note": "[DC473]", "values": [{"measurement": "Absorbance wavelength max", "setting": "[4]", "result": 380, "unit": "max nm"}, {"measurement": "Absorbance wavelength range", "setting": "[4]", "result": "275-450 range nm"}, {"measurement": "Emission wavelength max", "setting": "[4]; excitation at 380 nm", "result": 520, "unit": "max nm"}, {"measurement": "Emission wavelength range", "setting": "[4]; excitation at 380 nm", "result": "440-680 range nm"}, {"measurement": "membrane blebbing and cell death following exposure to UV light (initial screening)", "setting": "HaCaT cells [2]; UV light", "result": "induced membrane blebbing and cell death"}, {"measurement": "EC50", "setting": "HaCaT cells [6]", "result": 180, "unit": "nM"}]}
{"compound": "C#CCN1CCC(C)(C)c2cc(C#Cc3ccc(/C=C/C(=O)O)cc3)ccc21", "note": "[DC474, (2E)-3-(4-{2-[4,4-Dimethyl-1-(prop-2-yn-1-yl)-1,2,3,4-tetrahydroquinolin-6-yl]ethynyl}phenyl)prop-2-enoic Acid]", "values": [{"measurement": "Absorbance wavelength max", "setting": "[4]", "result": 380, "unit": "max nm"}, {"measurement": "Absorbance wavelength range", "setting": "[4]", "result": "275-450 range nm"}, {"measurement": "Emission wavelength max", "setting": "[4]; excitation at 300 nm", "result": 540, "unit": "max nm"}, {"measurement": "Emission wavelength range", "setting": "[4]; excitation at 300 nm", "result": "450-700 range nm"}, {"measurement": "melting point", "result": "193 to 195 °C (dec.)"}]}
{"compound": "CC1(C)CCC(C)(C)c2cc(C#Cc3ccc(C(=O)O)cc3)ccc21", "note": "[EC23, reference compound]", "values": [{"measurement": "membrane blebbing and cell death following exposure to UV light (initial screening)", "setting": "HaCaT cells [2]; UV light", "result": "no membrane blebbing was observed"}]}
